According to US20130059314A1, “FRET-BASED METHOD FOR THE DETERMINATION OF PROTEIN PHOSPHATASE AND KINASE ACTIVITY” (priority 2010, published 2013):

Tests used:
[1] = tested on: PP1/2A; assay: FRET-based phosphatase activity assay in PP1/2A buffer; format: biochemical; conditions: FIG. 9
Source text: FIG. 8 is a graph showing that in the PP1A/2A buffer, a linear range of phosphatase activity not attributable to calcineurin activity was detected.
(§1) Okadaic acid is a known inhibitor if PP1/2A.

[2] = tested on: Calcineurin; assay: FRET-based calcineurin activity assay with okadaic acid; format: biochemical; conditions: similar range of okadaic acid; FIG. 9
Experimental: as §1
2. Calcineurin activity was assessed by mixing equal parts lysate, RII or other peptide sample), and reacted for 5-10 mins at 30° C. Control reactions were included that contained known varying amounts of purified calcineurin to calculate a standard curve for each plate.
3. To stop the reaction, a solution of 10% acetyl nitrile and 0.01% acetic acid solution was added. This step was essential to reduce the pH of the reaction to below 3.5 and enable the binding of the titanium oxide beads to the target peptide.
4. FLUOR-titanium oxide beads were added with gentle shaking for 5 mins. Phosphorylated-peptides were retained on the beads producing a “shifted” TAMRA signal while non-phosphorylated peptides were unbound.
5. Reactions were neutralized with 0.35% ammonium hydroxide to return the pH to greater than 7 and the fluorescence of each sample will be read at 450 nm excitation/580 nm emission.
6. Calcineurin activity was then determined by calculating the slope and y-intercept of the standard curve and then extrapolating calcineurin activity from the fluorescence intensity.

## C=C1[C@@H](O)[C@@H]2O[C@]3(CC[C@H](/C=C/[C@@H](C)[C@@H]4CC(C)=C[C@@]5(O[C@H](C[C@@](C)(O)C(=O)O)CC[C@H]5O)O4)O3)CC[C@H]2O[C@@H]1[C@@H](O)C[C@H](C)[C@H]1O[C@@]2(CCCCO2)CC[C@H]1C [okadaic acid]
[1]
  phosphatase activity detected in the PP1/2A buffer, inhibition: sensitive to inhibition with okadaic acid, in a dose-dependent fashion
[2]
  calcineurin activity, sensitivity to okadaic acid: not sensitive to further reduction
